Results taken from US20240307577A1, “CHLORINATED 4'-ALKYLUMBELLIFERYL ALPHA-D-GLUCOPYRANOSIDE AND METHOD OF ASSESSING EFFICACY OF A STERILIZATION PROCESS INCLUDING THE SAME” (3M INNOVATIVE PROPERTIES COMPANY, priority 2021, published 2024).

System: Geobacillus stearothermophilus spores (ATCC 7953)
Assay: Fluorescence of enzyme substrates in culture media with Geobacillus stearothermophilus spores (96-well plate, 60° C.)
Format: cell-based
Conditions: for MEASURED FLUORESCENCE, RFU 10 Sec / MEASURED FLUORESCENCE, RFU +5 min / MEASURED FLUORESCENCE, RFU +10 min / MEASURED FLUORESCENCE, RFU +30 min / MEASURED FLUORESCENCE, RFU 10 sec: substrate 0.3 mg/mL, 60° C.; for fluorescent signal in the presence of Geobacillus stearothermophilus spores compared with MUG and 8F-MUG: high and low spore levels, two low pH levels, MUG also at its optimal pH of 8.0
Protocol: Culture media was prepared by dissolving by dissolving 2 g/L phytone peptone (BD BBL 211906) and 0.2 g/L L-alanine (Sigma 05129) in deionized water. 1N NaOH or 0.1 N HCl were used to adjust pH, and media were brought to volume and filter sterilizing using a 0.22 micron polyethersulfone (PES) filter. Stock solutions (25 mg/ml) of 6′-chloro-4′-methylumbelliferyl-a-D-glucopyranoside, 8′-chloro-4′-methylumbelliferyl-a-D-glucopyranoside, 8′-fluoro-4′-methylumbelliferyl-a-D-glucopyranoside, and 4-methylumbelliferyl-a-D-glucopyranoside were prepared in DMSO. The fluorogenic a-glucosidase substrates were added to culture media at a final concentration of 0.3 mg/ml.
(§1) Culture media (pH 6.7) containing 6′-chloro-4′-methylumbelliferyl α-D-glucopyranoside (0.3 mg/mL) was each added to eight wells (100 microliters per well) of a black 96-well microtiter plate with (NUNC #165301, Thermo Fisher Scientific, Waltham, Massachusetts). A 5-microliter aqueous suspension containing 5×10^3 Geobacillus stearothermophilus spores (ATCC 7953) was added to 4 of the wells for each medium in the microtiter plate. […] The top of the plate was covered with an optically clear sealing film (product #4311971, Applied Biosystems Corporation, Foster City, California). The plate was warmed at 60° C. and shaken in a linear direction. Fluorescence readings (360 nm excitation/450 nm emission at 50% gain) were taken from the bottom of the plate. A reading was taken at an initial time point of 10 seconds and then at +1-minute intervals thereafter. A Synergy Neo2 fluorescence plate reader (BioTek Company, Winooski, Vermont) was used. In Table 1, the mean fluorescence values detected (RFU) at times of 10 seconds, +5 minutes, +10 minutes, and +30 minutes are reported. The mean fluorescence values detected for the control wells were 511 RFU at 10 seconds; 426 RFU at +5 minutes: 373 RFU at +10 minutes, and 310 RFU at +30 minutes.
as §1, with “(pH 7.0)” for “(pH 6.7)”, “Table 2,” for “Table 1,”, “were 512” for “were 511”, “seconds; 417” for “seconds; 426”, “+5 minutes; 363” for “+5 minutes: 373”, “and 308” for “and 310”
Culture media (pH 6.7) containing 6′-chloro-4′-methylumbelliferyl α-D-glucopyranoside (0.3 mg/mL) was each added to eight wells (100 microliters per well) of a black 96-well microtiter plate with (NUNC #165301, Thermo Fisher Scientific, Waltham, Massachusetts). A 5-microliter aqueous suspension containing 5×10^5 Geobacillus stearothermophilus spores (ATCC 7953) was added to 4 of the wells for each medium in the microtiter plate. […] The top of the plate was covered with an optically clear sealing film (product #4311971, Applied Biosystems Corporation, Foster City, California). The plate was warmed at 60° C. and shaken in a linear direction. Fluorescence readings (360 nm excitation/450 nm emission at 50% gain) were taken from the bottom of the plate. […]

[1] = 5 × 10^3 spores, culture media pH 6.7, 360 nm ex/450 nm em
[2] = 5 × 10^3 spores, culture media pH 6.7
[3] = 5 × 10^3 spores, culture media pH 8.0
[4] = 5 × 10^5 spores, culture media pH 6.7
[5] = 5 × 10^5 spores, culture media pH 8.0
[6] = 5 × 10^3 spores, culture media pH 7.0
[7] = 5 × 10^5 spores, culture media pH 7.0

Row | fluorescent signal in the presence of Geobacillus stearothermophilus spores compared with MUG and 8F-MUG | SMILES | MEASURED FLUORESCENCE, RFU 10 Sec [1] | MEASURED FLUORESCENCE, RFU +5 min [2] | MEASURED FLUORESCENCE, RFU +10 min [2] | MEASURED FLUORESCENCE, RFU +30 min [2] | MEASURED FLUORESCENCE, RFU 10 sec [4] | MEASURED FLUORESCENCE, RFU +5 min [4] | MEASURED FLUORESCENCE, RFU +10 min [4] | MEASURED FLUORESCENCE, RFU +30 min [4] | MEASURED FLUORESCENCE, RFU 10 Sec [6] | MEASURED FLUORESCENCE, RFU +5 min [6] | MEASURED FLUORESCENCE, RFU +10 min [6] | MEASURED FLUORESCENCE, RFU +30 min [6] | MEASURED FLUORESCENCE, RFU 10 sec [7] | MEASURED FLUORESCENCE, RFU +5 min [7] | MEASURED FLUORESCENCE, RFU +10 min [7] | MEASURED FLUORESCENCE, RFU +30 min [7] | also measured
1 | – | Cc1cc(=O)oc2cc(O[C@H]3O[C@H](CO)[C@@H](O)[C@H](O)[C@H]3O)ccc12 [MUG, 4′-methylumbelliferyl-α-D-glucopyranoside, reference compound] | 430 RFU | 403 RFU | 464 RFU | 991 RFU | 895 RFU | 3260 RFU | 8049 RFU | 29586 RFU | – | – | – | – | – | – | – | – | MEASURED FLUORESCENCE, RFU 10 Sec [3]: 540 RFU; MEASURED FLUORESCENCE, RFU +5 min [3]: 658 RFU; MEASURED FLUORESCENCE, RFU +10 min [3]: 993 RFU; MEASURED FLUORESCENCE, RFU +30 min [3]: 2891 RFU; MEASURED FLUORESCENCE, RFU 10 sec [5]: 2644 RFU; MEASURED FLUORESCENCE, RFU +5 min [5]: 12059 RFU; MEASURED FLUORESCENCE, RFU +10 min [5]: 29277 RFU; MEASURED FLUORESCENCE, RFU +30 min [5]: 75861 RFU
2 | higher fluorescent signal | Cc1cc(=O)oc2c(Cl)c(O[C@H]3O[C@H](CO)[C@@H](O)[C@H](O)[C@H]3O)ccc12 [Example 2, 8′-chloro-4′-methylumbelliferyl α-D-glucopyranoside] | 1164 RFU | 3013 RFU | 6278 RFU | 15253 RFU | 21302 RFU | 56949 RFU | 73987 RFU | 81560 RFU | 1500 RFU | 3370 RFU | 6612 RFU | 16521 RFU | 21883 RFU | 58454 RFU | 77112 RFU | 83010 RFU | –
3 | higher fluorescent signal | Cc1cc(=O)oc2cc(O[C@H]3O[C@H](CO)[C@@H](O)[C@H](O)[C@H]3O)c(Cl)cc12 [Example 1, 6′-chloro-4′-methylumbelliferyl α-D-glucopyranoside] | 1013 RFU | 2251 RFU | 4622 RFU | 12582 RFU | 17227 RFU | 53202 RFU | 79375 RFU | 98077 RFU | 1226 RFU | 2377 RFU | 4424 RFU | 11941 RFU | 18386 RFU | 53621 RFU | 81061 RFU | 99019 RFU | –
4 | – | Cc1cc(=O)oc2c(F)c(O[C@H]3O[C@H](CO)[C@@H](O)[C@H](O)[C@H]3O)ccc12 [Example 8F-MUG, 8′-fluoro-4′-methylumbelliferyl α-D-glucopyranoside, reference compound] | 693 RFU | 1422 RFU | 2869 RFU | 8410 RFU | 8975 RFU | 31069 RFU | 50175 RFU | 67041 RFU | 777 RFU | 1573 RFU | 3153 RFU | 9038 RFU | 8171 RFU | 34178 RFU | 56663 RFU | 70392 RFU | –
